# Data published in patent publication US20240016895A1, “HEPCIDIN MIMETICS FOR TREATMENT OF SICKLE CELL DISEASE” (Protagonist Therapeutics, Inc., priority 2022, published 2024).
# “Also recorded” adds a separate entry of the source. Where a SMILES comes first, the peptide text is derived from it.
# How the values were obtained:
# Type in all cases: in vivo
# Townes SCD mice [1] = test: Complete blood count (hematological parameters) in Townes SCD mice treated for 4 weeks; conditions: for % Retics / Abs Retics / HCT / HGB / MCH / MCHC / MCV / RBC: 4 weeks
# Protocol: (§1) Compound 46, a hepcidin mimetic, was administered subcutaneously at 1.0 mg/kg (group 3, N=9) or 2.5 mg/kg (group 4, N=9) in Townes SCD mice. 36 Townes SCD and 6 129S1/SvlmJ (wild-type), female mice, 5 weeks old upon delivery. A control group of wild-type mice (groups 1, N=6) was treated with vehicle as well as another SCD mice (group 2, N=9). All mice were dosed three times per week (TIW). All mice were maintained on an iron-adjusted diet (TD.140258, 35 ppm iron) throughout the study. Collections and necropsies were performed 24 hours post-last dose of compound or vehicle. After 4 weeks on study, animals from each group were euthanized, EDTA whole blood collected for CBC and serum was collected for hemolysis biomarker analysis. Spleens and livers were weighed at terminus. Liver, spleen, kidney, heart and brain were collected for future analysis. Serum and urine were collected to analyze chemistry markers, such as bilirubin, LDH (lactate dehydrogenase), haptoglobin, urine creatinine, urine total protein and urine urea nitrogen.
# As shown in FIG. 4A and FIG. 4B, reticulocytes were counted both with the automated analyzer as well as manually from a new methylene blue stained blood smear by counting the number of positive stained cells encountered in 500 erythrocytes and calculating the percentage.
# Townes SCD mice [2] = test: Serum RBC hemolysis biomarkers (total bilirubin, LDH) in Townes SCD mice treated for 4 weeks; conditions: for LDH / Total bilirubin: serum, 4 weeks
# Protocol: as §1
# Serum total bilirubin and serum lactate dehydrogenase are hemolysis biomarkers.
# Townes SCD mice [3] = test: Spleen and liver weights and organ to body weight ratios at terminus in Townes SCD mice
# Protocol: as §1, with “Compound 46, a hepcidin mimetic, was administered subcutaneously at 1.0 mg/kg (group 3, N=9) or 2.5 mg/kg (group 4, N=9) in Townes SCD mice.” left out
# [4] = Dose 1 (mg/kg subcutaneously TIW)
# [5] = Dose 2.5 (mg/kg subcutaneously TIW)
compound,measurement,setting,value
"CCCCCCCCCCCCCCCC(=O)N[C@@H](CCC(=O)NCCCC[C@@H]1NC(=O)[C@H]([C@@H](C)CC)NC(=O)[C@@H](NC(=O)[C@@H]2CCCN2C(=O)[C@H](Cc2ccccc2)NC(=O)[C@H](Cc2cnc[nH]2)NC(=O)[C@@H](NC(=O)[C@H](CCC(=O)O)NC(=O)CC(C)C)[C@@H](C)O)CSSC[C@@H](C(=O)N[C@@H](CCCCN)C(N)=O)NC(=O)CNC(=O)[C@H](CCCCN)NC(=O)[C@H](CO)NC(=O)[C@H](CCCNC(=N)N)NC(=O)[C@@H]2CCCN2C(=O)[C@H](CCC(=O)O)NC(=O)[C@H](Cc2ccccc2)NC1=O)C(=O)O [Compound 46, Isovaleric_Acid-ETHFPCI(K(IsoGlu_Palm))FEPRSKGCK-NH2] (HELM PEPTIDE1{[CC(C)CC(=O)[*:2]].E.T.H.F.P.C.I.K.F.E.P.R.S.K.G.C.K.[am]}|PEPTIDE2{[CCCCCCCCCCCCCCCC(=O)[*:2]].[gGlu]}$PEPTIDE1,PEPTIDE2,9:R3-2:R2|PEPTIDE1,PEPTIDE1,7:R3-17:R3$$$V2.0)",RBC count,"Townes SCD mice [1]; 2.5 mg/kg dose, result in words, FIG. 3A",significantly reduced
same,Percent of reticulocytes compared to vehicle control,"Townes SCD mice [1]; 2.5 mg/kg dose, result in words, FIG. 4B",decreased percent of reticulocytes significantly
same,Mean corpuscular hemoglobin concentration (MCHC) compared to vehicle control,"Townes SCD mice [1]; 2.5 mg/kg, result in words, FIG. 6B",significant increase in MCHC
same,% Retics,Townes SCD mice [1]; [4],65.78 ± 12.23%
same,Abs Retics,Townes SCD mice [1]; [4],2612 ± 627.9 K/uL
same,HCT,Townes SCD mice [1]; [4],29.62 ± 3.45 %
same,HGB,Townes SCD mice [1]; [4],5.89 ± 0.93 g/dL
same,MCH,Townes SCD mice [1]; [4],9.89 ± 0.45 pg
same,MCHC,Townes SCD mice [1]; [4],19.82 ± 1.65 g/dL
same,MCV,Townes SCD mice [1]; [4],50.11 ± 3.41 fL
same,RBC,Townes SCD mice [1]; [4],5.94 ± 0.78 M/uL
same,% Retics,Townes SCD mice [1]; [5],50.33 ± 6.73 %
same,Abs Retics,Townes SCD mice [1]; [5],1195 ± 246.5 K/uL
same,HCT,Townes SCD mice [1]; [5],16.27 ± 7.23 %
same,HGB,Townes SCD mice [1]; [5],4.39 ± 0.36 g/dL
same,MCH,Townes SCD mice [1]; [5],9.82 ± 0.63 pg
same,MCHC,Townes SCD mice [1]; [5],23.22 ± 3.10 g/dL
same,MCV,Townes SCD mice [1]; [5],42.56 ± 3.81 fL
same,RBC,Townes SCD mice [1]; [5],4.49 ± 0.55 M/uL
same,Hgb level,"Townes SCD mice [1]; result in words, FIG. 3B",significantly reduced in all three dose groups
same,Hematocrit (HCT),"Townes SCD mice [1]; result in words, FIG. 5A",significant reduction of HCT in a dose dependent manner
same,Mean corpuscular volume (MCV) compared to the vehicle group,"Townes SCD mice [1]; result in words, FIG. 5B",significant reduction of MCV in a dose dependent manner
same,Mean corpuscular hemoglobin (MCH) compared to vehicle control,"Townes SCD mice [1]; result in words, FIG. 6A",significant reduction in MCH
same,White blood cell (WBC) count,"Townes SCD mice [1]; result in words, FIG. 7A",significant WBC and lymphocyte reduction in a dose dependent manner; also recorded: alleviated elevated white blood cell (WBC) and lymphocytes counts
same,Lymphocyte count,"Townes SCD mice [1]; result in words, FIG. 7B",significant WBC and lymphocyte reduction in a dose dependent manner; also recorded: alleviated elevated white blood cell (WBC) and lymphocytes counts
same,Neutrophil count,"Townes SCD mice [1]; result in words, FIG. 8A",significantly decreased neutrophil count in a dose dependent manner; also recorded: alleviated elevated neutrophil and monocyte counts
same,Monocyte count,"Townes SCD mice [1]; result in words, FIG. 8B",alleviated elevated neutrophil and monocyte counts
same,Serum total bilirubin,"Townes SCD mice [2]; result in words, FIG. 9A",significantly reduced both parameters in a dose dependent manner
same,Serum lactate dehydrogenase (LDH),"Townes SCD mice [2]; result in words, FIG. 9B",significantly reduced both parameters in a dose dependent manner
same,LDH,Townes SCD mice [2]; [4],610.6 ± 341.0 U/L
same,Total bilirubin,Townes SCD mice [2]; [4],2.16 ± 0.34 mg/dL
same,LDH,Townes SCD mice [2]; [5],372.3 ± 70.96 U/L
same,Total bilirubin,Townes SCD mice [2]; [5],1.13 ± 0.37 mg/dL
same,Liver Weight,"Townes SCD mice [3]; SCD mice, Dose 1",1.290 g
same,Liver:BW Ratio,"Townes SCD mice [3]; SCD mice, Dose 1",0.0633 g/g
same,Spleen Weight,"Townes SCD mice [3]; SCD mice, Dose 1",1.035 g
same,Spleen:BW Ratio,"Townes SCD mice [3]; SCD mice, Dose 1",0.0508 g/g
same,Liver Weight,"Townes SCD mice [3]; SCD mice, Dose 2.5",1.138 g
same,Liver:BW Ratio,"Townes SCD mice [3]; SCD mice, Dose 2.5",0.0573 g/g
same,Spleen Weight,"Townes SCD mice [3]; SCD mice, Dose 2.5",0.725 g
same,Spleen:BW Ratio,"Townes SCD mice [3]; SCD mice, Dose 2.5",0.0365 g/g
same,Liver Weight,"Townes SCD mice [3]; SCD mice, Dose 7.5",0.758 g
same,Liver:BW Ratio,"Townes SCD mice [3]; SCD mice, Dose 7.5",0.0549 g/g
same,Spleen Weight,"Townes SCD mice [3]; SCD mice, Dose 7.5",0.301 g
same,Spleen:BW Ratio,"Townes SCD mice [3]; SCD mice, Dose 7.5",0.0217 g/g
same,Spleen weights compared to vehicle,"Townes SCD mice [3]; SCD mice, result in words, FIG. 1A",significantly and dose-dependently lower
same,Spleen to body weight ratios compared to vehicle,"Townes SCD mice [3]; SCD mice, result in words, FIG. 1B",significantly and dose-dependently lower
same,Liver weight compared to vehicle treated SCD mice,"Townes SCD mice [3]; SCD mice, result in words, FIG. 2A",significantly lower in a dose dependent manner
same,Liver to body weight ratios compared to vehicle treated SCD mice,"Townes SCD mice [3]; SCD mice, result in words, FIG. 2B",significantly lower in a dose dependent manner
same,Spleen size,"Townes SCD mice [3]; Townes SCD mice, figure legend FIG. 1A/1B",reduces spleen size
same,Liver size,"Townes SCD mice [3]; Townes SCD mice, figure legend FIG. 2A/2B",reduces liver size
